# Experiments:
# Sprague-Dawley rats = experiment: Sodium lactate panic provocation model (1-allyglycine treated rats)
# Method: Experiments were performed in male Sprague-Dawley rats (300–350 g, Harlan Laboratory, Indianapolis, IN, United States). Prior to and during surgeries, rats were anesthetized with a nose cone connected to an isoflurane system (MGX Research Machine; Vetamic, Rossville, IN, United States). Radiotelemetry probes [Cat. no. HD-S11, Data Sciences International, St. Paul, MN, United States] were surgically implanted into the peritoneal cavity and sutured to the muscle wall in order to assess general motor activity. A pressure transducer was implanted into the femoral artery to assess cardiovascular responses [i.e., mean arterial blood pressure (MAP) and heart rate (HR)]. Rats were also fitted with femoral venous catheters for 0.5 M i.v. sodium lactate (NaLac) infusions, as previously described ([Shekhar et al., 1996]). After 3–5 days of recovery, rats were anesthetized and 26 gauge T-shaped cannulae (Cat. no. 3260PG, Plastics One, Inc., Roanoake, VA, United States) were directed at cardio-excitatory Perifornical hypothalamic area regions [([Shekhar and Keim, 1997]) bregma: 1.2 mm posterior, +2.1 mm lateral, +9.1 mm ventral and adjusted for approaching at a 10° angle toward the midline with the stereotaxic incisor bar elevated 5 mm above the interaural line] and cemented into place. The 22 gauge side arm was then attached, via PE-60 tubing, to an osmotic minipump (prefilled with 1-allyglycine solution chronically infused at 3.5 nmol/0.5 μl per hour) and sutured into place subcutaneously at the nape of the neck (DURECT Corporation, Model no. 2002).
# Five days following 1-allyglycine infusion onset, in a counterbalanced design and with 48 h between crossover, rats were orally dosed with either JNJ-54717793 at 3, 10, or 30 mg/kg, or vehicle as a control group 60 min prior to the 15 min 0.5 M sodium lactate challenge. […] The data reported are changes in mean arterial blood pressure, HR, and activity from the average of the baseline (t-5 to t-1) from each rat.
# Baseline SI testing was done 7–8 days following radiotelemetry surgery recovery, and repeated again 2–3 days later during drug treatment crossover. On experimental drug testing days, the SI test was performed 5 min after the offset of the sodium lactate challenge with different partners each time. The SI box dimension were 0.9 m long × 0.9 m wide × 0.3 m height. […] All behavioral tests were digitally videorecorded with a camera above the box. The “experimental” rat and an unfamiliar “partner” rat were both allowed to individually habituate to the box for a 5 min period 24 h prior to each SI test. During the SI test, the two rats were placed together in the center of the box, and the total duration (sec) of non-aggressive physical contact (grooming, sniffing, crawling over and under, etc.) initiated by the “experimental” rat is quantified over a 5 min duration. A baseline SI test was performed at least 72 h after i.v. catheterization, but prior to osmotic minipump implantation. Another SI test was performed 5 days following minipump infusions and immediately following saline or sodium lactate infusions. Video recorded sessions were scored at a later time by Stephanie D Fitz, whom was blind to any drug treatment.
# Each dependent variable for assessment of behavior and radiotelemetry data was respectively analyzed using a one way ANOVA, or a one way ANOVA with repeated measures with drug treatment as the main factor and time as repeated measures. In the presence of significant main effects post hoc tests were conducted using a parametric Fisher’s LSD test. Within subjects time effects were also assessed using a Dunnett’s one way analysis with the minute prior to the i.v infusion used as the control.
# human OX2R = target: T1, human OX2R (Homo sapiens, UniProt O43614); experiment: Calcium mobilization functional assay, PFSK-1 cells, OX-B; assay type: cell-based
# T1 sequence (O43614 1-444): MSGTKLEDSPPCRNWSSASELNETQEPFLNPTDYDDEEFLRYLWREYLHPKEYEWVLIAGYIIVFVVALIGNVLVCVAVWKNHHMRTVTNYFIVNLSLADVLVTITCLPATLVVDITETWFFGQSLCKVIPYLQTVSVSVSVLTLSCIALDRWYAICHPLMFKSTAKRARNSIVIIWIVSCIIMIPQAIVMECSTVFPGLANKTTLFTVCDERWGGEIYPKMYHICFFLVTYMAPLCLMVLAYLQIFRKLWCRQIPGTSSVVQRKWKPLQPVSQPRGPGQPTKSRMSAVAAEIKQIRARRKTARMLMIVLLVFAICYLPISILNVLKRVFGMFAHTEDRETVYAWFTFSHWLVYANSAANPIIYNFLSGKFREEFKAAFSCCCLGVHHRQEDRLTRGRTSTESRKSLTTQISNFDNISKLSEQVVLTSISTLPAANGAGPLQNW
# Method: The human OX2R functional assay used PFSK-1 cells which are a human neuroectodermal cell line that innately expresses the OX2R. Since the intracellular calcium response is transient and not consistent with equilibrium assumptions, the assays were performed by giving a standard, EC80 dose of the OX agonist and calculating a pKB from inhibition of the agonist response by a dose range of the antagonists. The cells were plated in black 96 well tissue culture plates with clear bottoms at 50,000 cells/well and grown overnight at 37°C in 5% carbon dioxide (CO2). […] The cell plate was then transferred to the Molecular Devices Fluorometric Imaging Plate Reader (FLIPR) Tetra instrument, which adds the OX agonist and monitors changes in fluorescence which reflect intracellular calcium levels.
# Results were calculated using GraphPad Prism (San Diego, CA, United States) software. Raw data from the FLIPR Tetra was exported as the difference between maximum and minimum fluorescence observed for each well. A non-linear regression was used to determine the agonist EC50 and antagonist IC50 for each plate, then the antagonist KB was calculated according to Cheng and Prusoff ([Cheng and Prusoff, 1973]).
# [1] = test system: C57Bl6 OX2R knockout (KO) mice; experiment: Sleep recording (EEG/EMG) in OX2R knockout mice; assay type: in vivo, mouse
# Method: Sleep experiments were conducted in male Sprague-Dawley rats (350–450 g, Harlan Laboratories, Livermore, CA, United States) and in male C57Bl6 OX2R knockout (KO) and corresponding wild-type mice (30–35 g, Charles River Laboratories, San Diego, CA, United States) as described previously ([Dugovic et al., 2009]). Animals were chronically implanted with telemetric devices (Data Sciences International, St. Paul, MN, United States) for the recording of electroencephalogram (EEG) and electromyogram (EMG) signals. Polysomnographic waveforms were analyzed per 10-s epoch and classified as wake, non-rapid eye movement (NREM) or REM sleep by using the computer software program SleepSign (Kissei Comtec, Nagano, Japan). For each experiment, EEG and EMG signals were recorded for up to 6 h after administration of the tested compounds. Analysis of sleep parameters included latency to NREM sleep (defined as the time interval to the first six consecutive NREM epochs) and REM sleep (the first two consecutive REM epochs post-treatment), and the duration of NREM and REM.
# Results were averaged and expressed as mean ± SEM in defined time intervals. To determine whether differences were significant at a given interval, either paired Student’s t-test or two-way analysis of variance (ANOVA) (interaction time × treatment), repeated measures followed by Bonferroni post hoc test was performed.
# In the present study, the in vivo functional target engagement was investigated in a model of permanent inhibition of OX2R, and the effects of JNJ-5471773 on sleep-wake states were examined in mice lacking the OX2R relative to their corresponding wild-type mice. […] NREM sleep latency and duration were not affected in both genotypes (not shown).
# [2] = test system: panel of 50 receptors, ion channels and transporters; experiment: Selectivity binding panel of 50 receptors, ion channels and transporters (Eurofins); settings: at 10 μM; any receptor/transporter/ion channel other than the OX1R
# Method: These assays were performed by Eurofins (Celles L’Evescault, France).
# [3] = rats, after sodium lactate challenge
structure (smiles),measurement,setting,value
"O=C(c1cccc(F)c1-c1ncccn1)N1[C@@H]2CC[C@H]1[C@H](Nc1cnc(C(F)(F)F)cn1)C2 [JNJ-54717793, (1S,2R,4R)-7-([(3-fluoro-2-pyrimidin-2-ylphenyl)carbonyl]-N-[5-(trifluoromethyl)pyrazin-2-yl]-7-azabicyclo[2.2.1]heptan-2-amine)]",sodium lactate-induced pressor response (MAP),"Sprague-Dawley rats; rats, 10 mg/kg p.o., t3 timepoint, no overall treatment effect",attenuation of pressor response
same,sodium lactate-induced tachycardia (HR),"Sprague-Dawley rats; rats, 3, 10, 30 mg/kg p.o., compared to vehicle",did not attenuate
same,locomotion,"Sprague-Dawley rats; rats, 3, 10, 30 mg/kg p.o., sodium lactate did not increase locomotion",did not significantly alter
same,center or middle times in the open field test,Sprague-Dawley rats; [3],Nor was there an effect
same,sedative effects (line crossings) in the open field test,Sprague-Dawley rats; [3],no apparent sedative effects
same,sodium lactate-induced anxiety behavior in the SI test,"Sprague-Dawley rats; rats, highest dose (30 mg/kg p.o.)",attenuate/block
same,Kb,human OX2R,309 nM
same,NREM sleep latency and duration,[1]; 30 mg/kg oral (not shown),not affected
same,time spent in REM sleep,"[1]; 30 mg/kg oral, first 6 h post-treatment, versus vehicle",prolonged
same,latency for REM sleep,"[1]; 30 mg/kg oral, versus vehicle",significantly reduced
same,inhibition in selectivity panel,[2],< 50%

# Source: paper PMC5465257, “Evaluation of JNJ-54717793 a Novel Brain Penetrant Selective Orexin 1 Receptor Antagonist in Two Rat Models of Panic Attack Provocation” (Frontiers in Pharmacology, 2017)
